# Test results from paper PMC8751651 (ACS Omega, 2021).
# “Also recorded” adds a separate entry of the source. Where a SMILES comes first, the peptide text is derived from it. Where no end group is shown, it is not given here. The star is where a group is joined. Biotin = O=C1N[C@H]2[C@H](CS[C@H]2CCCCC(=O)*)N1
# Tests used:
# [1] = system: inactivated SARS-CoV-2 virus; format: binding, SARS-CoV-2 (Isolate: USA-WA1/2020)
# [2] = molecular target: T1, SARS-CoV-2 RBD protein (Severe acute respiratory syndrome coronavirus 2, UniProt P0DTC2); format: binding
# [3] = system: influenza A virus; format: binding
# [4] = molecular target: T1, SARS-CoV-2 RBD protein; format: binding; remark: listed apart in the source
Compound,binding to inactivated virus [1],gold nanoparticles on magnetic beads (TEM) [1],SPR binding [2],gold nanoparticles on magnetic beads (TEM) [3],SPR binding curves / binding efficiency [4]
CC(C)C[C@H](NC(=O)[C@H](Cc1ccccc1)NC(=O)[C@H](CC(=O)O)NC(=O)[C@H](Cc1ccccc1)NC(=O)[C@H](CS)NC(=O)[C@H](CO)NC(=O)CCCC[C@@H]1SC[C@@H]2NC(=O)N[C@@H]21)C(=O)N[C@@H](CC(N)=O)C(=O)N[C@@H](Cc1c[nH]c2ccccc12)C(=O)N[C@@H](C)C(=O)N[C@@H](CO)C(=O)N[C@@H](CS)C(=O)N[C@@H](CC(=O)O)C(=O)NCC(=O)NCC(=O)NCC(=O)N[C@@H](CO)C(=O)O [peptide 1] (Biotin-SCFDFLNWASCDGGGS-OH; C-terminus assumed),can specifically bind to the SARS-CoV-2 virus,gold nanoparticles (dashed red circle) have conjugated onto the magnetic beads; also recorded: gold nanoparticles are observed on the magnetic beads,significant binding,no gold nanoparticles are observed bound to the surface,can efficiently bind to the SARS-CoV-2 RBD protein; also recorded: highest binding efficiency
Biotin-SCFDFLNWASCDGGGS (cysteine pairing not given here) [Biotinylated peptide 1],,gold nanoparticles (dashed red circle) have conjugated onto the magnetic beads,,,
